Laboratory results: ChEMBL document CHEMBL4229379, “Synthesis and structure-activity relationship of novel bisindole amidines active against MDR Gram-positive and Gram-negative bacteria” (Eur J Med Chem, 2018)
In brackets after ≈: the same amount, converted by molar mass.

How the values were obtained:
Staphylococcus aureus [1] = assay: Antibacterial activity against methicillin-sensitive Staphylococcus aureus 15 after 18 hrs by CLSI broth microdilution method; type: functional; details: Staphylococcus aureus, 15, 18 h
Proteus vulgaris = assay: Antibacterial activity against Proteus vulgaris ATCC 29905 after 18 hrs by CLSI broth microdilution method; type: functional; details: ATCC 29905, 18 h
Enterococcus faecalis [2] = assay: Antibacterial activity against vancomycin-sensitive Enterococcus faecalis ATCC 29212 after 18 hrs by CLSI broth microdilution method; type: functional; details: ATCC 29212, 18 h
Enterococcus faecium [3] = assay: Antibacterial activity against vancomycin-resistant Enterococcus faecium 12-1 after 18 hrs by CLSI broth microdilution method; type: functional; details: 12-1, 18 h
Escherichia coli [4] = assay: Antibacterial activity against extended-spectrum beta-lactamase deficient Escherichia coli 1515 after 18 hrs by CLSI broth microdilution method; type: functional; details: Escherichia coli, 1515, 18 h
Enterococcus faecium [5] = assay: Antibacterial activity against vancomycin-resistant Enterococcus faecium ATCC 700221 after 18 hrs by CLSI broth microdilution method; type: functional; details: ATCC 700221, 18 h
Enterobacter cloacae = assay: Antibacterial activity against Enterobacter cloacae ATCC 43560 after 18 hrs by CLSI broth microdilution method; type: functional; details: ATCC 43560, 18 h
Klebsiella pneumoniae [6] = assay: Antibacterial activity against extended-spectrum beta-lactamase harboring Klebsiella pneumoniae ATCC 700603 after 18 hrs by CLSI broth microdilution method; type: functional; details: Klebsiella pneumoniae, 700603, 18 h
Proteus mirabilis = assay: Antibacterial activity against Proteus mirabilis 12-6 after 18 hrs by CLSI broth microdilution method; type: functional; details: 12-6, 18 h
Enterococcus faecalis [7] = assay: Antibacterial activity against vancomycin-resistant Enterococcus faecalis ATCC 51299 after 18 hrs by CLSI broth microdilution method; type: functional; details: ATCC 51299, 18 h
[8] = Cytotoxicity against HEK293T cells assessed as reduction in cell viability after 48 hrs by MTS assay; type: cell-based, HEK-293T; details: human
Klebsiella pneumoniae [9] = assay: Antibacterial activity against extended-spectrum beta-lactamase deficient Klebsiella pneumoniae 7 after 18 hrs by CLSI broth microdilution method; type: functional; details: Klebsiella pneumoniae, 7, 18 h
Enterococcus faecium [10] = assay: Antibacterial activity against vancomycin-sensitive Enterococcus faecium 12-3 after 18 hrs by CLSI broth microdilution method; type: functional; details: 12-3, 18 h
Klebsiella aerogenes = assay: Antibacterial activity against Enterobacter aerogenes ATCC 13048 after 18 hrs by CLSI broth microdilution method; type: functional; details: ATCC 13048, 18 h
Providencia rettgeri = assay: Antibacterial activity against Providencia rettgeri ATCC 31052 after 18 hrs by CLSI broth microdilution method; type: functional; details: ATCC 31052, 18 h
Klebsiella pneumoniae [11] = assay: Antibacterial activity against extended-spectrum beta-lactamase deficient Klebsiella pneumoniae 12-4 after 18 hrs by CLSI broth microdilution method; type: functional; details: 12-4, 18 h
[12] = test system: Staphylococcus epidermidis; assay: Antibacterial activity against methicillin-resistant Staphylococcus epidermidis 12-8 after 18 hrs by CLSI broth microdilution method; type: functional; details: 12-8, 18 h
Staphylococcus aureus [13] = assay: Antibacterial activity against methicillin-sensitive Staphylococcus aureus 12-28 after 18 hrs by CLSI broth microdilution method; type: functional; details: 12-28, 18 h
[14] = test system: Staphylococcus epidermidis; assay: Antibacterial activity against methicillin-sensitive Staphylococcus epidermidis ATCC 12228 after 18 hrs by CLSI broth microdilution method; type: functional; details: ATCC 12228, 18 h
Escherichia coli [15] = assay: Antibacterial activity against extended-spectrum beta-lactamase deficient Escherichia coli 12-14 after 18 hrs by CLSI broth microdilution method; type: functional; details: 12-14, 18 h
Klebsiella pneumoniae [16] = assay: Antibacterial activity against new delhi metallo-beta-lactamase-1 harboring Klebsiella pneumoniae ATCC BAA-2146 after 18 hrs by CLSI broth microdilution method; type: functional; details: ATCC BAA-2146, 18 h
Escherichia coli [17] = assay: Antibacterial activity against extended-spectrum beta-lactamase deficient Escherichia coli ATCC 25922 after 18 hrs by CLSI broth microdilution method; type: functional; details: ATCC 25922, 18 h
Pseudomonas aeruginosa [18] = assay: Antibacterial activity against Pseudomonas aeruginosa PAO1 after 18 hrs by CLSI broth microdilution method; type: functional; details: PAO1, 18 h
Staphylococcus aureus [19] = assay: Antibacterial activity against methicillin-sensitive Staphylococcus aureus ATCC 29213 after 18 hrs by CLSI broth microdilution method; type: functional; details: ATCC 29213, 18 h
Klebsiella pneumoniae [20] = assay: Antibacterial activity against extended-spectrum beta-lactamase harboring Klebsiella pneumoniae 12-8 after 18 hrs by CLSI broth microdilution method; type: functional; details: 12-8, 18 h
Staphylococcus aureus [21] = assay: Antibacterial activity against methicillin-resistant Staphylococcus aureus ATCC 33591 after 18 hrs by CLSI broth microdilution method; type: functional; details: ATCC 33591, 18 h
Enterococcus faecalis [22] = assay: Antibacterial activity against vancomycin-sensitive Enterococcus faecalis 12-5 after 18 hrs by CLSI broth microdilution method; type: functional; details: 12-5, 18 h
Enterococcus faecalis [23] = assay: Antibacterial activity against vancomycin-resistant Enterococcus faecalis 09-9 after 18 hrs by CLSI broth microdilution method; type: functional; details: 09-9, 18 h
Serratia marcescens = assay: Antibacterial activity against Serratia marcescens ATCC 21074 after 18 hrs by CLSI broth microdilution method; type: functional; details: ATCC 21074, 18 h
Escherichia coli [24] = assay: Antibacterial activity against extended-spectrum beta-lactamase harboring Escherichia coli 12-15 after 18 hrs by CLSI broth microdilution method; type: functional; details: 12-15, 18 h
Staphylococcus aureus [25] = assay: Antibacterial activity against methicillin-resistant Staphylococcus aureus 12-33 after 18 hrs by CLSI broth microdilution method; type: functional; details: 12-33, 18 h
[26] = test system: Stenotrophomonas maltophilia; assay: Antibacterial activity against Stenotrophomonas maltophilia ATCC 13636 after 18 hrs by CLSI broth microdilution method; type: functional; details: ATCC 13636, 18 h
Citrobacter freundii = assay: Antibacterial activity against Citrobacter freundii ATCC 43864 after 18 hrs by CLSI broth microdilution method; type: functional; details: ATCC 43864, 18 h
Pseudomonas aeruginosa [27] = assay: Antibacterial activity against Pseudomonas aeruginosa 12-16 after 18 hrs by CLSI broth microdilution method; type: functional; details: 12-16, 18 h
[28] = test system: Staphylococcus epidermidis; assay: Antibacterial activity against methicillin-sensitive Staphylococcus epidermidis 12-6 after 18 hrs by CLSI broth microdilution method; type: functional; details: 12-6, 18 h
[29] = test system: Acinetobacter calcoaceticus; assay: Antibacterial activity against Acinetobacter calcoaceticus ATCC 19606 after 18 hrs by CLSI broth microdilution method; type: functional; details: ATCC 19606, 18 h
Pseudomonas aeruginosa [30] = assay: Antibacterial activity against Pseudomonas aeruginosa ATCC 27853 after 18 hrs by CLSI broth microdilution method; type: functional; details: ATCC 27853, 18 h

Row | SMILES | MIC (Staphylococcus aureus [1]) | MIC (Proteus vulgaris) | MIC (Enterococcus faecalis [2]) | MIC (Enterococcus faecium [3]) | MIC (Escherichia coli [4]) | MIC (Enterococcus faecium [5]) | MIC (Enterobacter cloacae) | MIC (Klebsiella pneumoniae [6]) | MIC (Proteus mirabilis) | MIC (Enterococcus faecalis [7]) | CC50 at 48 h [8] | MIC (Klebsiella pneumoniae [9]) | MIC (Enterococcus faecium [10]) | MIC (Klebsiella aerogenes) | MIC (Providencia rettgeri) | MIC (Klebsiella pneumoniae [11]) | MIC [12] | MIC (Staphylococcus aureus [13]) | MIC [14] | MIC (Escherichia coli [15]) | further results
1 | CN(C)CCNC(=N)c1ccc2cc(-c3ccc(-c4cc5ccc(C(=N)NCCN(C)C)cc5[nH]4)cc3)[nH]c2c1 | 2 µg/mL (≈ 3.74 µM) | 16 µg/mL (≈ 29.9 µM) | 4 µg/mL (≈ 7.48 µM) | 4 µg/mL (≈ 7.48 µM) | 8 µg/mL (≈ 15 µM) | 4 µg/mL (≈ 7.48 µM) | 8 µg/mL (≈ 15 µM) | 16 µg/mL (≈ 29.9 µM) | 128 µg/mL (≈ 239 µM) | 4 µg/mL (≈ 7.48 µM) | 31.2 µg/mL (≈ 58.4 µM) | 8 µg/mL (≈ 15 µM) | 8 µg/mL (≈ 15 µM) | 8 µg/mL (≈ 15 µM) | 16 µg/mL (≈ 29.9 µM) | 8 µg/mL (≈ 15 µM) | 1 µg/mL (≈ 1.87 µM) | 2 µg/mL (≈ 3.74 µM) | 0.5 µg/mL (≈ 0.935 µM) | 8 µg/mL (≈ 15 µM) | MIC (Klebsiella pneumoniae [16]): 8 µg/mL (≈ 15 µM); MIC (Escherichia coli [17]): 8 µg/mL (≈ 15 µM); MIC (Pseudomonas aeruginosa [18]): 64 µg/mL (≈ 120 µM); MIC (Staphylococcus aureus [19]): 2 µg/mL (≈ 3.74 µM); MIC (Klebsiella pneumoniae [20]): 8 µg/mL (≈ 15 µM); MIC (Staphylococcus aureus [21]): 2 µg/mL (≈ 3.74 µM); MIC (Enterococcus faecalis [22]): 4 µg/mL (≈ 7.48 µM); MIC (Enterococcus faecalis [23]): 4 µg/mL (≈ 7.48 µM); MIC (Serratia marcescens): 16 µg/mL (≈ 29.9 µM); MIC (Escherichia coli [24]): 16 µg/mL (≈ 29.9 µM); MIC (Staphylococcus aureus [25]): 2 µg/mL (≈ 3.74 µM); MIC [26]: 16 µg/mL (≈ 29.9 µM); MIC (Citrobacter freundii): 8 µg/mL (≈ 15 µM); MIC (Pseudomonas aeruginosa [27]): 64 µg/mL (≈ 120 µM); MIC [28]: 0.5 µg/mL (≈ 0.935 µM); MIC [29]: > 128 µg/mL; MIC (Pseudomonas aeruginosa [30]): 16 µg/mL (≈ 29.9 µM)
2 | c1cc2cc(-c3ccc(-c4cc5ccc(C6=NCCCN6)cc5[nH]4)cc3)[nH]c2cc1C1=NCCCN1 | 0.25 µg/mL (≈ 0.529 µM) | 16 µg/mL (≈ 33.9 µM) | 0.5 µg/mL (≈ 1.06 µM) | 0.25 µg/mL (≈ 0.529 µM) | 8 µg/mL (≈ 16.9 µM) | 0.25 µg/mL (≈ 0.529 µM) | 8 µg/mL (≈ 16.9 µM) | 32 µg/mL (≈ 67.7 µM) | 128 µg/mL (≈ 271 µM) | 0.5 µg/mL (≈ 1.06 µM) | 4.33 µg/mL (≈ 9.16 µM) | 8 µg/mL (≈ 16.9 µM) | 1 µg/mL (≈ 2.12 µM) | 8 µg/mL (≈ 16.9 µM) | 8 µg/mL (≈ 16.9 µM) | 8 µg/mL (≈ 16.9 µM) | 0.25 µg/mL (≈ 0.529 µM) | 0.25 µg/mL (≈ 0.529 µM) | 0.25 µg/mL (≈ 0.529 µM) | 4 µg/mL (≈ 8.46 µM) | MIC (Klebsiella pneumoniae [16]): 16 µg/mL (≈ 33.9 µM); MIC (Escherichia coli [17]): 4 µg/mL (≈ 8.46 µM); MIC (Pseudomonas aeruginosa [18]): 4 µg/mL (≈ 8.46 µM); MIC (Staphylococcus aureus [19]): 0.25 µg/mL (≈ 0.529 µM); MIC (Klebsiella pneumoniae [20]): 8 µg/mL (≈ 16.9 µM); MIC (Staphylococcus aureus [21]): 0.25 µg/mL (≈ 0.529 µM); MIC (Enterococcus faecalis [22]): 0.5 µg/mL (≈ 1.06 µM); MIC (Enterococcus faecalis [23]): 0.5 µg/mL (≈ 1.06 µM); MIC (Serratia marcescens): 16 µg/mL (≈ 33.9 µM); MIC (Escherichia coli [24]): 8 µg/mL (≈ 16.9 µM); MIC (Staphylococcus aureus [25]): 0.25 µg/mL (≈ 0.529 µM); MIC [26]: 4 µg/mL (≈ 8.46 µM); MIC (Citrobacter freundii): 4 µg/mL (≈ 8.46 µM); MIC (Pseudomonas aeruginosa [27]): 16 µg/mL (≈ 33.9 µM); MIC [28]: 0.25 µg/mL (≈ 0.529 µM); MIC [29]: 64 µg/mL (≈ 135 µM); MIC (Pseudomonas aeruginosa [30]): 4 µg/mL (≈ 8.46 µM)
